The results in this text go back to patent US20100310467A1, “COMPOSITION AND METHOD FOR GENERATING A METABOLIC PROFILE USING 13C-MR DETECTION” (priority 2007, published 2010).

Data set [1] can be described thus: Liquid state polarisation and T1 by liquid state 13C-NMR. The format is physicochemical. To be noted: for T1: at 9.4 T; for Liquid state polarisation: liquid state 13C-NMR at 400 MHz, after 90 minutes DNP and dissolution. As to the method: In a similar way, the level of polarisation for dissolved hyperpolarised ^13C-fumarate may be determined by liquid state NMR measurements. Again the signal intensity of the dissolved hyperpolarised ^13C-fumarate is compared with the signal intensity of the dissolved ^13C-fumarate before polarisation. The level of polarisation is then calculated from the ratio of the signal intensities of ^13C-fumarate before and after polarisation.
After 90 minutes of dynamic nuclear polarisation, the obtained frozen polarised composition was dissolved in 6 ml of a solution prepared from 5.87 ml water (100 mg/l EDTA added), 133 μl NaOH aq (2 M) and 30 mg NaCl. The pH of the final solution containing the dissolved composition was 7.2. The ^13C1,4-fumarate concentration in said final solution was 50 mM.
Liquid state polarisation was determined by liquid state ^13C-NMR at 400 MHz to be 21%. T1 at 9.4 T was 34 s.

A short description of data set [2]: Solid state polarisation by solid state 13C-NMR after DNP. The format is physicochemical. To be noted: DNP at 1.2 K, 3.35 T, microwave 93.90 GHz, trityl radical and Gd-chelate. From the text: The level of polarisation may for instance be determined by solid state ^13C-NMR measurements in solid hyperpolarised ^13C-fumarate, e.g. solid hyperpolarised ^13C-fumarate obtained by dynamic nuclear polarisation (DNP) of ^13C-fumarate. The solid state ^13C-NMR measurement preferably consists of a simple pulse-acquire NMR sequence using a low flip angle. The signal intensity of the hyperpolarised ^13C-fumarate in the NMR spectrum is compared with signal intensity of ^13C-fumarate in a NMR spectrum acquired before the polarisation process. The level of polarisation is then calculated from the ratio of the signal intensities of before and after polarisation.
The probe is inserted into the probe-retaining container, submerged in the liquid helium and irradiated with microwaves, preferably at a frequency of about 94 GHz at 200 mW. The level of polarisation may be monitored by for instance acquiring solid state ^13C-NMR signals of the probe during microwave irradiation. Generally, a saturation curve is obtained in a graph showing NMR signal vs. time. […] A solid state ^13C-NMR measurement suitably consists of a simple pulse-acquire NMR sequence using a low flip angle. The signal intensity of the dynamic nuclear polarised nuclei, i.e. ^13C nuclei in ^13C-fumaric acid or ^13C-fumarate is compared with the signal intensity of the ^13C nuclei in ^13C-fumaric acid or ^13C-fumarate before DNP. The polarisation is then calculated from the ratio of the signal intensities before and after DNP.
To a micro test tube was added ^13C1,4-fumaric acid (33.5 mg, 0.284 mmol), TRIS (42 mg, 0.347 mmol) and 22.5 μl water. The test tube was gently heated and sonicated to dissolve all compounds. […] Polarisation was followed by solid state ^13C-NMR and the solid state polarisation was determined to be 25%.

The test system of another data set is mouse hind leg muscle. Kind of data set: In vivo 13C-MR spectroscopy of mouse leg before and after ischemic injury. Also noted: species or system C57Bl/6 mouse. The procedure: 175 μl of an imaging medium comprising hyperpolarised sodium ^13C1,4-fumarate which was prepared as described in Example 2 was injected into a C57Bl/6 mouse over a time period of 6 s. The sodium ^13C1,4-fumarate concentration in said imaging medium was about 50 mM. A surface coil (tuned for carbon) was positioned around the leg muscle and signals of ^13C-fumarate and ^13C-malate were detected by ^13C-MR spectroscopy which was carried out in a 2.4 T Bruker spectrometer to generate a metabolic profile. A total of 60 ^13C-spectra were acquired with a repetition time of 2 s and 15 degree RF pulses. Ischemia in a mouse leg muscle was made by strangulation of the hind leg muscle. Following an ischemic period of 30 min the mouse leg muscle was re-perfused for one hour. In this Example, the ^13C-malate signal is approximately 0.5% of the ^13C-fumarate signal in the mouse muscle before ischemia. Following ischemia and 5 min. reperfusion the ^13C-malate signal is approximately 1.5% of the ^13C-fumarate signal. After 60 min. reperfusion the ^13C-malate signal is approximately 4% of the ^13C-fumarate signal. With an identical protocol signals of ^13C-pyruvate and ^13C-lactate were detected by ^13C-MR spectroscopy (polarisation of pyruvate was carried out as described in Example 2 of WO-A-2006/011809).

For data set [3], the system named is subcutaneous mouse lymphoma (EL-4). Kind of data set: 13C-dynamic imaging of subcutaneous mouse lymphoma with and without etoposide treatment. The format is in vivo, C57Bl/6 mouse. Conditions: EL-4 tumours, 22-26 hours after etoposide injection, n=5, signal normalized to maximum fumarate signal. As to the method: EL-4 cells were injected into a C57Bl/6 mouse to generate a subcutaneous mouse lymphoma. On day 9 after implantation, the EL4 tumour was imaged. 175 μl of an imaging medium comprising hyperpolarised sodium ^13C1-fumarate-d2 which was prepared as described in Example 3 was injected into the mouse over a time period of 6 s. The sodium ^13C1-fumarate-d2 concentration in said imaging medium was about 20 mM. A surface coil (tuned for carbon) was positioned over the subcutaneous tumour and signals of ^13C-fumarate and ^13C-malate were detected by ^13C-MR spectroscopy which was carried out using a 2.4 T Bruker spectrometer to generate a metabolic profile of the tumour and the surrounding healthy tissue. A slice selective FID was acquired with a 10° RF flip angle, TR=3 s, and 60 repetitions. […] Signal amplitudes for both malate and fumarate were normalized to the maximum fumarate signal and were measured as a function of time. […] Fumarase may be an ideal candidate enzyme for this because it requires no cofactors for its activity (so its activity is solely determined by the availability of the enzyme and the substrate) and the rate of conversion is very fast in vivo (about ˜2-4 fold faster than lactate dehydrogenase) making it a sensitive test.

In another data set the test system is cells. Kind of data set: Further in vitro experiments, malate production after etoposide treatment. Type of data set: cell-based.
For data set [4], the system named is Dicarboxylate Transporter (DCT). In words: In vitro hyperpolarized malate production with transporter inhibition. The format is cell-based.
Data set [5] has as its system MDA-MB-231 cells (human epithelial breast cell adenocarcinoma). Kind of data set: In vitro 13C-MR detection, conversion of 13C-fumarate to 13C-malate. Type of data set: cell-based. As to the method:
(§1) 50 μl (2.7 mM in sodium ^13C1-fumarate-d2) of an imaging medium which was prepared according to Example 3 was mixed into 8*10^6 MDA-MB-231 cells (human epithelial breast cell adenocarcinoma). Signals of ^13C-fumarate and ^13C-malate were detected by acquiring a set of ^13C-MR spectra every 5 s with a 15 degree RF pulse. The result is shown in FIG. 1: ^13Cmalate was building up over time. The conversion rate was 70 μmol/min*g soluble protein with a peak ^13C-malate signal after approximately 30 s. With an identical protocol conversion rates were calculated for three other human cancer cell lines, these are compared in Table 1.
(§2) Table. […] Formation of ^13C1,4-malate-d2 from ^13C1-fumarate is calculated for the 4 investigated cell lines (n≧3). […] This cell line is highly invasive and hormone-insensitive and represents a late stage cancer. Formation rate of malate varies greatly between the two prostate cancer lines, with a 7 times higher conversion rate in the more aggressive PC-3 line, compared to DU-145.

Another data set concerns DU-145 cells. The description is as above. The format is cell-based, human. To be noted: n≧3. As to the method:
as §1, §2

A further data set concerns H-EMC-SS cells. Described as above. Type of data set: cell-based, human. Conditions: n≧3. The procedure:
as §1, §2

The next data set relates to PC-3 cells. The description is as above. Type of data set: cell-based, human. As to the method:
as §1, §2

Regarding `O=[13C](O)/C=C/[13C](=O)O` [^13C1,4-fumarate], in [1], the T1 is given as 34 s and the Liquid state polarisation was 21%.
The compound `O=[13C](O)/C=C/[13C](=O)O` [^13C1,4-fumaric acid] came in with a solid state polarisation in data set [2] of 30%.
Same read-out and setting: the result for `[2H]/C(C(=O)O)=C(/[2H])[13C](=O)O` [^13C1-fumaric acid-d2] reads 41%.
For the compound `CC(=O)[13C](=O)O` [^13C-pyruvate, reference compound], the “13C-lactate signal relative to pyruvate signal” value is listed as “back to levels comparable to the healthy muscle” in the data set with mouse hind leg muscle (60 min reperfusion) and “increases to above the pyruvate signal” with mouse hind leg muscle (directly after ischemia). Also, in the data set with mouse hind leg muscle (healthy muscle), the “13C-lactate signal as % of the 13C-pyruvate signal” value is recorded as “approximately 40%”.
Take `COc1cc([C@@H]2c3cc4c(cc3[C@@H](O[C@@H]3O[C@@H]5CO[C@@H](C)O[C@H]5[C@H](O)[C@H]3O)[C@H]3COC(=O)[C@H]23)OCO4)cc(OC)c1O` [etoposide]: in data set [3], the “malate signal compared to untreated tumours” value was found to be 65%. The malate production entry in the data set on cells (after 14 hrs of treatment with etoposide) is reported as “increase in malate production”; with cells (after 16 hrs of treatment with etoposide), “further increase”.
Take `[Cl-].[Li+]` [lithium chloride]: the “change in hyperpolarized malate production” value in [4] (provisional experiments with lithium chloride) was “only a small reduction”.
On to `O=[13C]([O-])/C=C/[13C](=O)[O-].[Na+].[Na+]` [sodium ^13C1,4-fumarate], for which the “13C-malate signal as % of the 13C-fumarate signal” value is given as “approximately 1.5%” in the data set on mouse hind leg muscle (30 min ischemia, 5 min reperfusion); “approximately 4%” in the data set on mouse hind leg muscle (30 min ischemia, 60 min reperfusion); “approximately 0.5%” in the data set with mouse hind leg muscle (mouse muscle before ischemia). In [1], the T1 came out at 34 s. Besides, the Liquid state polarisation in data set [1] was found to be 29%.
Regarding `[2H]/C(C(=O)[O-])=C(/[2H])[13C](=O)[O-].[Na+].[Na+]` [sodium ^13C1-fumarate-d2], the “conversion rate (fumarate to malate)” value in data set [5] (8*10^6 MDA-MB-231 cells, 50 μl imaging medium (2.7 mM), FIG. 1) is given as 70 μmol/min*g soluble protein. Further, the Malate formation rate is 77 ± 19 μmol min^−1 g^−1 protein in data set [5] (MDA-MB-231 cells, n≧3); 6 ± 2 μmol min^−1 g^−1 protein with DU-145 cells; 40 ± 14 μmol min^−1 g^−1 protein with H-EMC-SS cells; 42 ± 0.5 μmol min^−1 g^−1 protein with PC-3 cells (PC-3 cells, n≧3). The “time of peak 13C-malate signal” value in data set [5] (MDA-MB-231 cells, spectra every 5 s) is given as “approximately 30 s”. Moreover, the “conversion rate in PC-3 compared to DU-145” value in the data set with PC-3 cells (prostate cancer lines PC-3 vs DU-145) is on record as 7 times. In addition, the T1 in data set [1] was 44 s. For the same compound, in data set [1], the Liquid state polarisation was 40%.
On to `O=C(O)CCC(=O)O` [succinate], for which the “change in malate production” value in data set [4] (excess (50 mM) of unlabelled, non-hyperpolarized succinate added) was “only a small reduction”.
In [2], TRIS-^13C1,4-fumarate registered a solid state polarisation of 25%.
